The compounds below were run on HeLa. Settings: not given.
Assay type: cell-based, human
Compound `CC[C@@]1(O)C(=O)OCc2c1cc1n(c2=O)Cc2c-1nc1cc3c(cc1c2-c1cccc(F)c1)OCO3` [Compound 7a] has an IC50 of 34.7 ± 6.5 nM.
With `CC[C@@]1(O)C(=O)OCc2c1cc1n(c2=O)Cc2c-1nc1cc3c(cc1c2-c1cc(F)cc(F)c1)OCO3` [Compound 7c] the IC50 was 35.6 ± 5.8 nM.
In the case of `CC[C@@]1(O)C(=O)OCc2c1cc1n(c2=O)Cc2c-1nc1cc3c(cc1c2-c1ccc(C)c(F)c1)OCO3` [Compound 7d], the IC50 is reported as 22.1 ± 7.3 nM.
Work on `CC[C@@]1(O)C(=O)OCc2c1cc1n(c2=O)Cc2c-1nc1cc3c(cc1c2-c1ccc(F)c(C)c1)OCO3` [Compound 7e] yielded an IC50 of 36.6 ± 4.5 nM.
Work on `CC[C@@]1(O)C(=O)OCc2c1cc1n(c2=O)Cc2c-1nc1cc3c(cc1c2-c1cc(C)cc(F)c1)OCO3` [Compound 7f] yielded an IC50 of 56.5 ± 2.8 nM.
Work on `CC[C@@]1(O)C(=O)OCc2c1cc1n(c2=O)Cc2c-1nc1cc3c(cc1c2-c1ccc(OC)c(F)c1)OCO3` [Compound 7g] yielded an IC50 of 24.3 ± 4.4 nM.
For `CC[C@@]1(O)C(=O)OCc2c1cc1n(c2=O)Cc2c-1nc1cc3c(cc1c2-c1cc(F)cc(OC)c1)OCO3` [Compound 7i], the IC50 was 124 ± 12.1 nM.

The compounds below were run on HepG2. Settings: not given.
Assay type: cell-based, human
In the case of `CC[C@@]1(O)C(=O)OCc2c1cc1n(c2=O)Cc2c-1nc1cc3c(cc1c2-c1cccc(F)c1)OCO3` [Compound 7a], the IC50 is reported as 155 ± 35.1 nM.
With `CC[C@@]1(O)C(=O)OCc2c1cc1n(c2=O)Cc2c-1nc1cc3c(cc1c2-c1cc(F)cc(F)c1)OCO3` [Compound 7c] the IC50 was 41.4 ± 5.9 nM.
`CC[C@@]1(O)C(=O)OCc2c1cc1n(c2=O)Cc2c-1nc1cc3c(cc1c2-c1ccc(C)c(F)c1)OCO3` [Compound 7d] gave an IC50 of 36.9 ± 1.2 nM.
Compound `CC[C@@]1(O)C(=O)OCc2c1cc1n(c2=O)Cc2c-1nc1cc3c(cc1c2-c1ccc(F)c(C)c1)OCO3` [Compound 7e] has an IC50 of 36.7 ± 2.6 nM.
`CC[C@@]1(O)C(=O)OCc2c1cc1n(c2=O)Cc2c-1nc1cc3c(cc1c2-c1cc(C)cc(F)c1)OCO3` [Compound 7f] showed an IC50 of 56 ± 0.3 nM.
`CC[C@@]1(O)C(=O)OCc2c1cc1n(c2=O)Cc2c-1nc1cc3c(cc1c2-c1ccc(OC)c(F)c1)OCO3` [Compound 7g] showed an IC50 of 172 ± 5.3 nM.
Compound `CC[C@@]1(O)C(=O)OCc2c1cc1n(c2=O)Cc2c-1nc1cc3c(cc1c2-c1cc(F)cc(OC)c1)OCO3` [Compound 7i] has an IC50 of 48.5 ± 2.3 nM.

Each compound was assayed on CRC PDX27454 tumors. Settings: mouse, in vivo.
Experimental: Colorectal cancer (CRC) patient-derived xenograft (PDX) models were used to evaluate their in vivo antitumor activity. […] Treatments were administered weekly for four weeks on days 0, 7, 14 and 21 and tumor volumes and individual body weights were monitored.
Human xenograft tumors used. In this invention disclose, human SW620 (colorectal), HT29 (colorectal) and HT-3 (retinoblastoma) cancer cell line-established xenograft tumors were used. Human tumor cell line-derived xenograft tumors are initially established by subcutaneously injecting 2-5×10^6 cultured cancer cells in a volume of 100-150 p L medium into the flank area of severe combined immunodeficiency (SCID) mice. The derived tumors are then passed a couple of generations in mice by transplanting 30-50 mg non-necrotic tumor mass via a trocar for experiments or maintenance. […] PDX tumors were originally established on severe Combined Immunodeficiency (SCID) mice from pancreatic and colorectal cancer patient tumor tissues obtained from metastatic sites of the disease in the clinic.
Specifically, PDX tumors were originally established on severe Combined Immunodeficiency (SCID) mice from pancreatic and colorectal cancer patient tumor tissues obtained from metastatic sites of the disease in the clinic. […] The vehicle is the same think aqueous suspension without drug. Experimental SCID mice were subcutaneously implanted with 30-40 mg individual PDX tumors (isolated from maintenance mice) at the flank area for PDX27454 of SCID mice. Treatment with vehicle or a drug of 7Q-series (2) was initiated 7-14 days after the transplanted tumors reached 100-200 mm^3 (designated day 0). The animal model of PDX tumors was orally treated weekly for 4 times (one cycle/course, as shown with black arrows) or only one time drug administration.
`CC[C@@]1(O)C(=O)OCc2c1cc1n(c2=O)Cc2c-1nc1cc3c(cc1c2-c1cc(F)cc(F)c1)OCO3` [Compound 7c] was tested, and the antitumor efficacy was “high antitumor efficacy”.

Same assay, conditions: mouse, in vivo, ip
With `CC[C@@]1(O)C(=O)OCc2c1cc1n(c2=O)Cc2c-1nc1cc3c(cc1c2-c1cc(F)cc(F)c1)OCO3` [Compound 7c] the mouse body weights was “stable mouse body weights”.

The compounds below were run on A549. Settings: not given.
Assay type: cell-based, human
`CC[C@@]1(O)C(=O)OCc2c1cc1n(c2=O)Cc2c-1nc1cc3c(cc1c2-c1cccc(F)c1)OCO3` [Compound 7a] gave an IC50 of 40 ± 0.3 nM.
`CC[C@@]1(O)C(=O)OCc2c1cc1n(c2=O)Cc2c-1nc1cc3c(cc1c2-c1cc(F)cc(F)c1)OCO3` [Compound 7c] showed an IC50 of 49.5 ± 10 nM.
With `CC[C@@]1(O)C(=O)OCc2c1cc1n(c2=O)Cc2c-1nc1cc3c(cc1c2-c1ccc(C)c(F)c1)OCO3` [Compound 7d] the IC50 was 48.2 ± 7.9 nM.
For `CC[C@@]1(O)C(=O)OCc2c1cc1n(c2=O)Cc2c-1nc1cc3c(cc1c2-c1ccc(F)c(C)c1)OCO3` [Compound 7e], the IC50 was 29.4 ± 4.1 nM.
`CC[C@@]1(O)C(=O)OCc2c1cc1n(c2=O)Cc2c-1nc1cc3c(cc1c2-c1cc(C)cc(F)c1)OCO3` [Compound 7f] gave an IC50 of 30.6 ± 3.8 nM.
`CC[C@@]1(O)C(=O)OCc2c1cc1n(c2=O)Cc2c-1nc1cc3c(cc1c2-c1ccc(OC)c(F)c1)OCO3` [Compound 7g] showed an IC50 of 70.2 ± 9.6 nM.
Work on `CC[C@@]1(O)C(=O)OCc2c1cc1n(c2=O)Cc2c-1nc1cc3c(cc1c2-c1cc(F)cc(OC)c1)OCO3` [Compound 7i] yielded an IC50 of 15.5 ± 2.2 nM.

The compounds below were run on HCT116. Settings: not given.
Assay type: cell-based, human
`CC[C@@]1(O)C(=O)OCc2c1cc1n(c2=O)Cc2c-1nc1cc3c(cc1c2-c1cccc(F)c1)OCO3` [Compound 7a] gave an IC50 of 150 ± 2.5 nM.
`CC[C@@]1(O)C(=O)OCc2c1cc1n(c2=O)Cc2c-1nc1cc3c(cc1c2-c1cc(F)cc(F)c1)OCO3` [Compound 7c] showed an IC50 of 48 ± 4.4 nM.
`CC[C@@]1(O)C(=O)OCc2c1cc1n(c2=O)Cc2c-1nc1cc3c(cc1c2-c1ccc(C)c(F)c1)OCO3` [Compound 7d] showed an IC50 of 50.3 ± 14.6 nM.
For `CC[C@@]1(O)C(=O)OCc2c1cc1n(c2=O)Cc2c-1nc1cc3c(cc1c2-c1ccc(F)c(C)c1)OCO3` [Compound 7e], the IC50 was 25.5 ± 3.2 nM.
Work on `CC[C@@]1(O)C(=O)OCc2c1cc1n(c2=O)Cc2c-1nc1cc3c(cc1c2-c1cc(C)cc(F)c1)OCO3` [Compound 7f] yielded an IC50 of 41.4 ± 5.9 nM.
With `CC[C@@]1(O)C(=O)OCc2c1cc1n(c2=O)Cc2c-1nc1cc3c(cc1c2-c1ccc(OC)c(F)c1)OCO3` [Compound 7g] the IC50 was 43.2 ± 15.8 nM.
Compound `CC[C@@]1(O)C(=O)OCc2c1cc1n(c2=O)Cc2c-1nc1cc3c(cc1c2-c1cc(F)cc(OC)c1)OCO3` [Compound 7i] has an IC50 of 66.9 ± 6.5 nM.
